Test results taken from patent EP4600243A2, “NOVEL BICYCLIC HETEROCYCLYL COMPOUNDS AND USE THEREOF” (Jeil Pharmaceutical Co., Ltd., priority 2022, dated 2024).
pIC50: −log10 of the molar value.

Columns and labels:
[1] = molecular target: T1, protein-protein interaction between SOS1 and KRAS G12C (Homo sapiens, UniProt Q07889); assay: KRAS::SOS1 HTRF binding analysis (KRAS G12C/SOS1 binding kit); details: compound at 0.1 uM
T1 construct: purchased Cisbio 64KRASG12PEG
T1 sequence (Q07889 1-1333): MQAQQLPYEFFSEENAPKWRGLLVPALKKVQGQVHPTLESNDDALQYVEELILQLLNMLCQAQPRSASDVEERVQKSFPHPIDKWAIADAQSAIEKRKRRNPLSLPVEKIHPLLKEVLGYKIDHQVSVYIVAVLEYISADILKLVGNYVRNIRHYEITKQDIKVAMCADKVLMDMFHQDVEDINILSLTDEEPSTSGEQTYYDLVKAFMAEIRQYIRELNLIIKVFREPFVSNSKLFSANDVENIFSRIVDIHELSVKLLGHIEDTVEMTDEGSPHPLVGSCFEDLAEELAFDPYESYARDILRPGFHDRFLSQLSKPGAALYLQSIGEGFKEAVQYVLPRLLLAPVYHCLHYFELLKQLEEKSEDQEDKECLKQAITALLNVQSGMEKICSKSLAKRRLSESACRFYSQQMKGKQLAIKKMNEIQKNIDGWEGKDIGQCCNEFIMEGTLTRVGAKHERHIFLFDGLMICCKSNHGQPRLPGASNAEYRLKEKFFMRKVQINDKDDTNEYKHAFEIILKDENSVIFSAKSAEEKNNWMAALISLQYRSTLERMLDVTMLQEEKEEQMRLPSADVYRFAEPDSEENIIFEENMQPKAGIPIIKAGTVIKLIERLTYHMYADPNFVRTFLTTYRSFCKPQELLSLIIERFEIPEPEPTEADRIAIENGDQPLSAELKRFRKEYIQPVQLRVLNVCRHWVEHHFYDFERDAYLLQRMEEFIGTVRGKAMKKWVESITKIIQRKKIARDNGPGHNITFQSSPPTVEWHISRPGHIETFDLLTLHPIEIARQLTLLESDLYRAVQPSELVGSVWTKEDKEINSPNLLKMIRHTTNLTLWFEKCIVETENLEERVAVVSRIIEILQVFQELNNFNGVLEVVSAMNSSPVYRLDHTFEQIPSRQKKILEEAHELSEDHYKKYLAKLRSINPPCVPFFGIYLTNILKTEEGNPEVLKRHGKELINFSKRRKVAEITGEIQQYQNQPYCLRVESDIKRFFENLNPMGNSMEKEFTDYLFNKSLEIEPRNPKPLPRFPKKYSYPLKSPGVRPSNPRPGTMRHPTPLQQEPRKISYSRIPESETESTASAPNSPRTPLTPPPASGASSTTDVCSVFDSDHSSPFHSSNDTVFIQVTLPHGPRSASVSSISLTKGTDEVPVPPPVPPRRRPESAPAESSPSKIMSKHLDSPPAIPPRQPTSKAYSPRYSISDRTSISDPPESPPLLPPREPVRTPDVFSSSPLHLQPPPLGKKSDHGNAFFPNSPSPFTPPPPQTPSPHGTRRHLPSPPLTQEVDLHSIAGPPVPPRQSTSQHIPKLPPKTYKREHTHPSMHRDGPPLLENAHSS
Experimental: 1-1. KRAS::SOS1 HTRF binding analysis
An SOS1 inhibitory ability of the example compounds of the present invention was confirmed by identifying the effect of inhibiting a protein-protein interaction between SOS1 and KRAS G12C of the compounds according to examples of the present invention.
Specifically, a KRAS G12C/SOS1 binding kit (64KRASG12PEG, Cisbio, France) was purchased and used. 2 µℓ of Tag1-KRAS G12C and 2 µℓ of GTP were premixed and dispensed 4 µl each into a 384 well plate (6007290, PerkinElmer, USA). 2 µℓ of the compound and 4 µℓ of Tag2-SOS1 were placed and then 10 µℓ of premixed Anti-Tag1 XL665 antibody and Anti-Tag2 Tb cryptate antibody was dispensed to each well. The plates were sealed and allowed to react at room temperature for one hour and 40 minutes, and then 665 nm wavelength and 620 nm wavelength were measured using a HTRF® compatible reader (Synergy H4, BioTeK, USA), and the ratio of receptor and donor emission signals for each well was calculated as 665 nm/620 nm×10^4.
(+++: more than 70 to 100% inhibition, ++: more than 40 to 70% inhibition, +: 0 to 40% inhibition) [Table 4]

EGFR kinase = molecular target: T2, EGFR kinase (Homo sapiens, UniProt P00533); assay: EGFR kinase inhibitory analysis (ADP-Glo enzyme analysis system); assay type: biochemical; details: ADP-Glo luminescence
T2 construct: purchased Promega Corporation V3831
Experimental: 1-2. EGFR kinase inhibitory analysis
Specifically, an ADP-Glo™ enzyme analysis system (V3831, Promega Corporation, USA) was purchased and used. […] The ADP-Glo™ reagent was added in an amount of 5 µℓ per well and allowed to react at room temperature for 40 minutes to stop the EGFR kinase reaction and to remove unused ATP. 10 µℓ of kinase detection reagent (phosphorylase detection reagent) was added and reacted at room temperature for 30 minutes to convert ADP to ATP and show ATP using luciferase and luciferin. Detection was performed using luminescence of an ELISA reader (Synergy H4, BioTek, USA).

T2 sequence (P00533 25-1210): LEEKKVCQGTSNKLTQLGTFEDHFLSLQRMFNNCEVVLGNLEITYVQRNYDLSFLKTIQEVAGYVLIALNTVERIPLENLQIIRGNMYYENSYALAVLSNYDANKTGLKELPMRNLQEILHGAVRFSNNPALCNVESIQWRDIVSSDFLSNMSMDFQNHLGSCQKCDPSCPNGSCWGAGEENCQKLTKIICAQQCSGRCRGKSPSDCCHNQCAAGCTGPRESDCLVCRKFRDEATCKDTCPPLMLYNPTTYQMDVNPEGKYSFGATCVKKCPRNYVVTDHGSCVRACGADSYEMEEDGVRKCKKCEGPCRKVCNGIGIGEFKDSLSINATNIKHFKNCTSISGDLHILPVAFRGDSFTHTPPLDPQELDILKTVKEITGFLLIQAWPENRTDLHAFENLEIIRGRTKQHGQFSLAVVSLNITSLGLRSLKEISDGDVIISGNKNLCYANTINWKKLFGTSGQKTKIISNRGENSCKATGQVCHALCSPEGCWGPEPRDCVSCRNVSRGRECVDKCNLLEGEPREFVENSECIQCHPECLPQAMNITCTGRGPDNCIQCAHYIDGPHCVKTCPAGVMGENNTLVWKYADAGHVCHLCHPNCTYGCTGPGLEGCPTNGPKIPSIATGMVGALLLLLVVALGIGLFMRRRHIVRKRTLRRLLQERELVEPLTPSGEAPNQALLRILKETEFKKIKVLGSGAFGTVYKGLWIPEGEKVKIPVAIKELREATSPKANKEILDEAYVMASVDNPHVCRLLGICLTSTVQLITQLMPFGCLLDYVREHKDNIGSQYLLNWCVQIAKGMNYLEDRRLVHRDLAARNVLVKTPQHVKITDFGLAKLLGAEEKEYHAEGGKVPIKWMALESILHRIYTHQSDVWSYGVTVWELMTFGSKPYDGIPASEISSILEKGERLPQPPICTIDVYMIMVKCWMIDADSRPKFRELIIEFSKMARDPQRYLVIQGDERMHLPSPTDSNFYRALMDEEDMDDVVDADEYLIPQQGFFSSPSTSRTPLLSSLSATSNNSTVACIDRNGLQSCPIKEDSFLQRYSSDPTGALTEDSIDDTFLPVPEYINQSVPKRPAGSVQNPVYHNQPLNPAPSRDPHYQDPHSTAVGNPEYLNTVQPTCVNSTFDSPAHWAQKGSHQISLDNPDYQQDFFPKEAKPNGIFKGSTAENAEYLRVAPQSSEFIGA

inhibition at 0.1 µM [1] [%]	SMILES	pIC50 (EGFR kinase)
40 to 70	C[C@@H](Nc1cnnc2ccc(N3CCN(C)CC3)cc12)c1cccc(C(F)F)c1F [Example 5, (R)-N-(1-(3-(difluoromethyl)-2-fluorophenyl)ethyl)-6-(4-methylpiperazin-1-yl)cinnolin-4-amine]	< 5.00
0 to 40	C[C@@H](Nc1cnnc2ccc(N[C@@H]3CCOC3)cc12)c1cccc(C(F)F)c1F [Example 35, N4-((R)-1-(3-(difluoromethyl)-2-fluorophenyl)ethyl)-N6-((R)-tetrahydrofuran-3-yl)cinnolin-4,6-diamine]	
0 to 40	CO[C@H]1CCCN(c2ccc3nncc(N[C@H](C)c4cccc(C(F)F)c4F)c3c2)C1 [Example 24, N-((R)-1-(3-(difluoromethyl)-2-fluorophenyl)ethyl)-6-((S)-3-methoxypiperidin-1-yl)cinnolin-4-amine]	
70 to 100	C[C@@H](Nc1cnnc2ccc(N3CC4(CN(C)C4)C3)cc12)c1cccc(C(F)F)c1F [Example 7, (R)-N-(1-(3-(difluoromethyl)-2-fluorophenyl)ethyl)-6-(6-methyl-2,6-diazaspiro[3.3]heptan-2-yl)cinnolin-4-amine]	
40 to 70	C[C@@H](Nc1cnnc2ccc(N3CCN(C(=O)C4CCOCC4)CC3)cc12)c1cccc(C(F)F)c1F [Example 63, (R)-(4-(4-(1-(3-(difluoromethyl)-2-fluorophenyl)ethylamino)cinnolin-6-yl)piperazin-1-yl)(tetrahydro-2H-pyran-4-yl)methanone]	
40 to 70	C[C@@H](Nc1cnnc2ccc(N[C@H]3CCNC3)cc12)c1cccc(C(F)F)c1F [Example 40, N4-((R)-1-(3-(difluoromethyl)-2-fluorophenyl)ethyl)-N6-((S)-pyrrolidin-3-yl)cinnolin-4,6-diamine]	
0 to 40	C[C@@H](Nc1cnnc2ccc(N[C@@H]3CCNC3)cc12)c1cccc(C#N)c1 [Example 54, 3-((R)-1-(6-((R)-pyrrolidin-3-ylamino)cinnolin-4-ylamino)ethyl)benzonitrile]	
0 to 40	Cc1c([C@@H](C)Nc2cnnc3ccc(N4CC5(CN(C)C5)C4)cc23)cccc1C(F)(F)F [Example 49, (R)-N-(1-(2-methyl-3-(trifluoromethyl)phenyl)ethyl)-6-(6-methyl-2,6-diazaspiro[3.3]heptan-2-yl)cinnolin-4-amine]	
0 to 40	COC1(C)CN(c2ccc3nncc(N[C@H](C)c4cccc(C(F)F)c4F)c3c2)C1 [Example 33, (R)-N-(1-(3-(difluoromethyl)-2-fluorophenyl)ethyl)-6-(3-methoxy-3-methylazetidin-1-yl)cinnolin-4-amine]	

SMILES	inhibition at 0.1 µM [1] [%]	pIC50 (EGFR kinase)
C[C@@H](Nc1cnnc2ccc(C3=CCNCC3)cc12)c1cccc(C(F)F)c1F [Example 2, (R)-N-(1-(3-(difluoromethyl)-2-fluorophenyl)ethyl)-6-(1,2,3,6-tetrahydropyridin-4-yl)cinnolin-4-amine]	40 to 70	< 5.00
C[C@@H](Nc1cnnc2ccc(N3CC4CC(C3)O4)cc12)c1cccc(C(F)(F)F)c1 [Example 47, 6-(6-oxa-3-azabicyclo[3.1.1]heptan-3-yl)-N-((R)-1-(3-(trifluoromethyl)phenyl)ethyl)cinnolin-4-amine]	0 to 40	
C[C@@H](Nc1cnnc2ccc(C3=CCN(C)CC3)cc12)c1cccc(C(F)F)c1F [Example 3, (R)-N-(1-(3-(difluoromethyl)-2-fluorophenyl)ethyl)-6-(1-methyl-1,2,3,6-tetrahydropyridin-4-yl)cinnolin-4-amine]	70 to 100	
C[C@@H](Nc1cnnc2ccc(N3CC4CC(C3)O4)cc12)c1cc(O)cc(C(F)F)c1 [Example 55, 3-((1R)-1-((6-(6-oxa-3-azabicyclo[3.1.1]heptan-3-yl)cinnolin-4-yl)amino)ethyl)-5-(difluoromethyl)phenol]	0 to 40	
C[C@@H](Nc1cnnc2ccc(C3=CCN(C)CC3)cc12)c1cccc(C#N)c1 [Example 53, (R)-3-(1-(6-(1-methyl-1,2,3,6-tetrahydropyridin-4-yl)cinnolin-4-ylamino)ethyl)benzonitrile]	0 to 40	
